Test results as given in patent US20210387949A1, “NEW SELECTIVE MODULATORS OF INSECT NICOTINIC ACETYLCHOLINE RECEPTORS” (UNIVERSITE DE NANTES, priority 2018, published 2021).
Read-outs that look alike come from different tables or passages of the source.

Tests used:
[1] = test system: Honey bees Apis mellifera; conditions: literature values (Iwasa 2004; Stark 1995); cited from earlier work
[2] = test system: cercal nerve giant interneuron synapses within the cockroach sixth abdominal ganglion (A6); test: Mannitol-gap recordings, neurotoxic effect on insect cholinergic synaptic transmission; type: cell-based; conditions: for EC50: read-out: EC50 of depolarization; for Depolarization of the sixth abdominal ganglion: in words; for Reversal of synaptic depolarization after wash-out: effect also observed 2 h after application
Procedure: Neurotoxic effect was studied using mannitol-gap recordings. Experiments were performed on the cercal nerve giant interneuron synapses located within the cockroach sixth abdominal ganglion (A6) using the mannitol-gap method pioneered by Callec (Callec, J. J.; Sattelle, D. B., A simple technique for monitoring the synaptic actions of pharmacological agents. J Exp Biol 1973, 59, (3), 725-38; and Callec, J. J.; Sattelle, D. B.; Hue, B.; Pelhate, M., Central synaptic actions of pharmacological agents in insects: oil-gap and mannitol-gap studies. In Neurotox 79, Sherwood, M., Ed. Plenum Press: New York, 1980; pp 93-100).
Electrical events were recorded using external electrodes. A non-electrolyte medium (mannitol) was interposed between the recording sites (Callec, J. J.; Sattelle, D. B.; Hue, B.; Pelhate, M., Central synaptic actions of pharmacological agents in insects: oil-gap and mannitol-gap studies. In Neurotox 79, Sherwood, M., Ed. Plenum Press: New York, 1980; pp 93-100). The main advantages of this method were to preserve the recordings of the unitary or evoked excitatory postsynaptic potentials (EPSP) and the postsynaptic polarization. Consequently, monitoring the variations of EPSP amplitude and/or polarization induced by drug application enables dose-response curves to be recorded. Moreover, this set-up allows long-term experiments to be performed and test solutions can be readily applied without any of the technical problems associated with intracellular recording.
A6 was carefully desheathed to facilitate penetration of bath-applied drugs. The recording electrodes were connected to the input of high-impedance amplifier, whose outputs were passed to a numeric oscilloscope (Hameg, Germany) and a chart recorder (Kipp and Zonen, B D 111, Holland). Variation of postsynaptic polarization was monitored on a chart recorder and the cEPSPs were evoked by electrical stimulations of the ipsilateral cercal nerve XI using a dual pulse stimulator (Campden 915, USA). TMX was applied during 3 min in the same conditions as previously published (Buckingham, S.; Lapied, B.; Corronc, H.; Sattelle, F., Imidacloprid actions on insect neuronal acetylcholine receptors. J Exp Biol 1997, 200, (Pt 21), 2685-92; and Thany, S. H., Agonist actions of clothianidin on synaptic and extrasynaptic nicotinic acetylcholine receptors expressed on cockroach sixth abdominal ganglion. Neurotoxicology 2009, 30, (6), 1045-52), with a micropump fast perfusion (Harvard Apparatus) that produced a constant solution exchange (500 μL/min). All muscarinic and nicotinic antagonists were bath-applied for at least 20 min before a single application of TMX. Recordings were made at room temperature.
To compare the depolarizations, the peak amplitudes were normalized (V/Vmax). The dose-response curve was derived from the fitted curve following the equation:
y=Vmin+(Vmax−Vmin)/(1+10^(log EC^50^−X)H)
where Y is the normalized response, Vmax and Vmin are the maximum and minimum responses, H is the Hill coefficient, EC50 is the concentration giving half the maximum response and X is the logarithm of the compound concentration.

honeybee Apis mellifera = test: Oral toxicity against honeybee; type: in vivo; conditions: for % mortality 24 h / % mortality 48 h: oral, DMSO 1%; for Toxicity for bees: higher concentrations (150 ng/bee), in words
Procedure: Honeybees were kept from hives located at the University of Orleans and transferred to the laboratory incubators for experiments (30±1.5° C.; 12/12 h 0/N). They were placed in six different cages, 20 bees per cage, with 40% sucrose solution (control group) or tested compounds.
All tests were carried out using adult worker honeybees, Apis mellifera L (Hymenoptera: Apidae) taken from two queen colonies. These colonies were disease-free and had received no chemical treatments (Eg. Varroacide). For oral toxicity tests, adult worker bees were collected from the hive combs (avoiding the brood nest area) or from the flight board.
Stock solutions of compounds were dissolved in dimethyl sulfoxide (DMSO) to obtain 500 ng/μL and stocked at −20° C. These samples were then diluted in sucrose solution (40%; w/v), for final experiments. […] Solutions of the test doses were stirred immediately prior to use and were visually homogenous when proposed to bees. Bee allocation to the treatment groups was made impartially. Before being used for the test, bees were subjected to a starvation period of between 2 h and 3 h under test conditions (For review, see Nauen, R.; Ebbinghaus-Kintscher, U.; Schmuck, R., Toxicity and nicotinic acetylcholine receptor interaction of imidacloprid and its metabolites in Apis mellifera (Hymenoptera: Apidae). Pest Management Science 2001, 57, (7), 577-586).
Six batches of bees (20 bees per batch) were subjected to different doses of the test compound (nominal doses between 50 ng/bee and […]). Doses were determined according to the lethal dose of neonicotinoid insecticides inducing bee toxic effects (Table 3). Controls received sucrose solution containing 0.25% DMSO. The glass test feeders containing any unconsumed portions of the doses were removed and after each experiment a fresh sucrose solution was supplied in feeders within the cages. For each concentration three replicates were made (180 bees/concentration). Mortality was measured at 24 h and 48 h after treatment.

[3] = bath application, dose-response curve of sixth abdominal ganglion depolarization

## CN/C(=N\[N+](=O)[O-])NCc1cnc(Cl)s1 [Clothianidin]
[1]
  LD50: 21.8 ng/bee (Iwasa 2004)

## Cc1ccc(S(=O)(=O)N2CCCC2)cc1 [Compound 3aa, 1-tosylpyrrolidine]
other
  melting point: 129 °C

## Cc1ccc(S(=O)(=O)N2CCCC2C#N)cc1 (centres unmarked) [Compound 3ab, 1-tosylpyrrolidine-2-carbonitrile]
other
  melting point: 102 °C

## Cc1ccc(S(=O)(=O)N2CCC[C@H]2C#N)cc1 [Compound 3ac, (S)-1-tosylpyrrolidine-2-carbonitrile]
other
  melting point: 102 °C

## O=S(=O)(c1ccc(Cl)cc1)N1CCCC1 [Compound 3ba, 1-((4-chlorophenyl)sulfonyl) pyrrolidine]
other
  melting point: 106 °C

## N#CC1CCCN1S(=O)(=O)c1ccc(Cl)cc1 (centres unmarked) [Compound 3bb, 1-((4-chlorophenyl)sulfonyl) pyrrolidine-2-carbonitrile]
other
  melting point: 115 °C

## N#C[C@@H]1CCCN1S(=O)(=O)c1ccc(Cl)cc1 [Compound 3bc, (S)-1-((4-chlorophenyl)sulfonyl) pyrrolidine-2-carbonitrile]
other
  melting point: 115 °C

## O=S(=O)(c1ccc(Cl)nc1)N1CCCC1 [Compound 3da, 2-chloro-5-(pyrrolidin-1-ylsulfonyl)pyridine]
other
  melting point: 134 °C

## N#C[C@@H]1CCCN1S(=O)(=O)c1ccc(Cl)nc1 [Compound 3i, (S)-1-((6-chloropyridin-3-yl)sulfonyl)pyrrolidine-2-carbonitrile]
[2]; [3]
  EC50: 19 µM
[2]; bath application
  Depolarization of the sixth abdominal ganglion: strong depolarization
[2]
  Reversal of synaptic depolarization after wash-out: not reversed after wash-out
Honeybee Apis mellifera; 50 ng/bee
  % mortality 24 h: 3.3%
  % mortality 48 h: 10.0%
Honeybee Apis mellifera; 150 ng/bee
  % mortality 24 h: 0%
  % mortality 48 h: 0%

## COc1ccc(S(=O)(=O)N2CCCC2)cn1 [Compound 3ii, 2-methoxy-5-(pyrrolidin-1-ylsulfonyl)pyridine]
[2]; [3]
  EC50: 8.02 µM
[2]; bath application
  Depolarization of the sixth abdominal ganglion: strong depolarization
[2]
  Reversal of synaptic depolarization after wash-out: not reversed after wash-out
Honeybee Apis mellifera; 50 ng/bee
  % mortality 24 h: 0%
  % mortality 48 h: 3.3%
Honeybee Apis mellifera; 150 ng/bee
  % mortality 24 h: 0%
  % mortality 48 h: 1.2%
Honeybee Apis mellifera
  Toxicity for bees: not toxic for bees

## COc1ccc(S(=O)(=O)N2CCCC2C#N)cn1 (centres unmarked) [Compound 3iii, 1-((6-methoxypyridin-3-yl)sulfonyl)pyrrolidine-2-carbonitrile]
[2]; [3]
  EC50: 4.25 µM
[2]; bath application
  Depolarization of the sixth abdominal ganglion: strong depolarization
[2]
  Reversal of synaptic depolarization after wash-out: not reversed after wash-out
Honeybee Apis mellifera; 50 ng/bee
  % mortality 24 h: 3.3%
  % mortality 48 h: 5.0%
Honeybee Apis mellifera; 150 ng/bee
  % mortality 24 h: 2.5%
  % mortality 48 h: 3.7%

## Cc1ccc(S(=O)(=O)N2CCC[C@H]2C#N)cn1 [Compound 3iv, (S)-1-((6-methylpyridin-3-yl)sulfonyl)pyrrolidine-2-carbonitrile]
[2]; bath application
  Depolarization of the sixth abdominal ganglion: strong depolarization
[2]
  Reversal of synaptic depolarization after wash-out: not reversed after wash-out
Honeybee Apis mellifera; 50 ng/bee
  % mortality 24 h: 0%
  % mortality 48 h: 0%
Honeybee Apis mellifera; 150 ng/bee
  % mortality 24 h: 0%
  % mortality 48 h: 0%
Honeybee Apis mellifera
  Toxicity for bees: not toxic for bees

## CN/C(=N/CC1CCOC1)N[N+](=O)[O-] (centres unmarked) [Dinotefuran]
[1]
  LD50: 75 ng/bee (Iwasa 2004)

## O=[N+]([O-])NC1=NCCN1Cc1ccc(Cl)nc1 [Imidacloprid, reference compound]
[2]
  EC50: ~15 µM

## CCN(Cc1ccc(Cl)nc1)/C(=C/[N+](=O)[O-])NC [Nitenpyram]
[1]
  LD50: 138 ng/bee

## CN1COCN(Cc2cnc(Cl)s2)/C1=N\[N+](=O)[O-] [Thiamethoxam]
[1]
  LD50: 29.9 ng/bee (Iwasa 2004)
